Results: patent US4398937A, “Selective algaecides for control of cyanochloronta” (The University of Southern Mississippi, priority 1981, dated 1983)

Legend:
[1] = test system: blue-green algae (Microcystis and Oscillatoria); experiment: Sewage treatment test 2, dense bloom of blue-green algae; settings: ten days after treatment
Source text: Ten days after treatment aeration was stopped and cell debris was allowed to settle.

[2] = test system: zooplankton; experiment: Field Experiment III, pond, zooplankton; format: in vivo; settings: 2 ppm on 6/9/81
Protocol: (§1) In Field Experiment III, a small two acre pond was monitored for a complete year for plankton organisms as before. Oscillatoria and Microcystis were usually the prevalent blue-green algae. On 6/9/81 the pond was experiencing a bloom consisting completely of Oscillatoria. Channel catfish from the ponds had the characteristic earthy, musty taste and odor of 4 and 4 respectively on the 0 to 5 scale. The pond was treated on this date with 2 ppm potassium ricinoleate, one of the selective algaecides, as before.

[3] = test system: Rhizochrysis; experiment: Sewage treatment test 1, Rhizochrysis; settings: six days after treatment
Protocol: (§2) Two experiments were performed on sewage to further illustrate the utility of these algaecides. In the first experiment, sewage containing mostly green algae was treated with relatively high concentrations of potassium ricinoleate.

[4] = test system: bluegill fingerlings; experiment: Toxicity to bluegill fingerlings; format: in vivo; settings: 5, 10, 15, 20, 30 and 35 ppm
Protocol: An additional experiment was conducted on live bluegill fingerlings at 5, 10, 15, 20, 30 and 35 ppm of the algaecide.

[5] = test system: green algae; experiment: Field Experiment I, catfish pond, green algae and other phytoplankton; format: in vivo; settings: 10 ppm
Protocol: (§3) 1, 1980, to Mar. 19, 1981.
(§4) On July 30, 1980, most ponds had numbers of blue-green algae exceeding 2×10^6 cells/liter. These algae were predominantly Oscillatoria,Microcystis and Anacystis with smaller numbers of Nostoc, Anabaena and Lyngbya. The experimental pond had 1.2×10^6 cells/liter composed mainly of Microcystis sp. Large numbers of copepods and rotifers were present. On July 30, the pond was treated with 10 ppm potassium ricinoleate by distributing a 30% aqueous solution evenly through the water column by pump from a small boat. […] This is further substantiated by the dry weights and chlorophyll a levels.

[6] = test system: sewage containing mostly green algae; experiment: Sewage treatment test 1, mostly green algae; settings: for cells/liter: after six days of aeration
Protocol: as §2

[7] = Field Experiment II, taste and odor of water; format: in vivo; settings: 2 ppm on 5/26/81
[8] = test system: green algae; experiment: Field Experiment II, catfish pond, green algae; format: in vivo; settings: 2 ppm
[9] = test system: Tribonema; experiment: Selective effect on algae in test tubes (Table V), Tribonema; format: cell-based; settings: for cells/ml: average of 3 samples
Protocol: Another laboratory experiment was run to further substantiate the selective effect of one of the algaecides, potassium ricinoleate. Two species of blue-green algae, Lyngbya and Cylindrospermum, and three species of green algae, Chlorella, Haematococcus and Stigeoclonium and Tribonema, a yellow-green alga of the division Chrysophycophyta, were treated as follows: Twenty ml test tubes of sterile BBM culture solution were innoculated with each alga. All species of algae were evaluated with three groups, control, 2.5 ppm algaecide and 7.5 ppm algaecide. Each group was run with triplicate samples.
Controls were counted 6 days after innoculation, algaecide was added to the treatment groups seven days after innoculation and all test tubes were counted thirteen days after innoculation. The results are shown in Table V. After seven days, there was a 31% reduction in the Lyngbya cultures at 2.5 ppm algaecide and a 40% reduction at 7.5 ppm. After seven days, there was a 60% reduction in Cylindrospermum cultures at 2.5 ppm algaecide and a 72% reduction at 7.5 ppm. […] After thirteen days, there was a 55% reduction in numbers at both 2.5 ppm and 7.5 ppm. After twenty days there was a 27% reduction at both concentrations. […] They are, like blue-green algae, often associated with taste and odor problems.

[10] = test system: green algae; experiment: Field Experiment III, pond, green algae; format: in vivo; settings: 2 ppm on 6/9/81
Protocol: as §1

[11] = test system: Chlorophyll a; experiment: Field Experiment I, chlorophyll a; format: in vivo; settings: 10 ppm
Protocol: as §3, §4

[12] = 7/31 post-treatment (treated July 30, 1980)
[13] = scale 0 to 5 (5 worst, 0 undetectable), 6/1/81

## CCCCCC[C@@H](O)C/C=C\CCCCCCCC(=O)[O-].[K+]
[1]; 2.5 ppm
  cells/liter: 8.3 × 10^5 cells/liter
[1]; 5.0 ppm
  cells/liter: 7.9 × 10^5 cells/liter
[1]; 10.0 ppm
  cells/liter: 6.6 × 10^5 cells/liter
[1]; 15.0 ppm
  cells/liter: 4.4 × 10^5 cells/liter
[1]
  state of enumerated suspended cells: appeared dead
[2]; 6/10/81
  Zoo #'s/liter: 2251 #'s/liter
[2]; 6/12/81
  Zoo #'s/liter: 4948 #'s/liter
[2]; 6/22/81
  Zoo #'s/liter: 4541 #'s/liter
[3]
  presence of Rhizochrysis: completely absent
[4]
  fish survival: All bluegills survived
[5]; [12]
  Cells/Liter of green algae: 6.2 × 10^4 Cells/Liter
[5]; 8/1 post-treatment
  Cells/Liter of green algae: 5.0 × 10^4 Cells/Liter
[5]; 8/6 post-treatment
  Cells/Liter of green algae: 2.1 × 10^4 Cells/Liter
[5]; 8/19 post-treatment
  Cells/Liter of green algae: 0 Cells/Liter
[5]; 9/6 post-treatment
  Cells/Liter of green algae: 1.7 × 10^4 Cells/Liter
[5]; 9/23 post-treatment
  Cells/Liter of green algae: 4.5 × 10^5 Cells/Liter
[5]; 11/21 post-treatment (normal winter reduction)
  Cells/Liter of green algae: 2.5 × 10^3 Cells/Liter
[5]; 12/14 post-treatment
  Cells/Liter of green algae: 0 Cells/Liter
[5]; seven days after treatment
  numbers of other phytoplankton: essentially unchanged or increased in numbers
[6]; 18.4 ppm
  cells/liter: 1.91 × 10^5 cells/liter
[6]; 46.0 ppm
  cells/liter: 1.33 × 10^5 cells/liter
[6]; 92.0 ppm
  cells/liter: 2.30 × 10^5 cells/liter
[6]; 184.1 ppm
  cells/liter: 2.72 × 10^5 cells/liter
[6]; six days after treatment
  effect on green algae: somewhat stimulated
[7]; [13]
  Water Odor: 0
  Water Taste: 1
[7]; scale 0 to 5, 6/5/81
  Water Odor: 0
  Water Taste: 1
[7]; scale 0 to 5, 6/12/81
  Water Odor: 0
  Water Taste: 0
[7]; scale 0 to 5, 6/15/81
  Water Odor: 0
  Water Taste: 0
[8]; 5/26/81 B post-treat, 4 p.m., Deep, prevalent Mic
  Cells/liter green algae: 3.2 × 10^5 Cells/liter
[8]; 5/26/81 C post-treat, 4 p.m., Shallow, prevalent Ped
  Cells/liter green algae: 2.0 × 10^5 Cells/liter
[8]; 5/27/81 D, 9:40 p.m., Deep, prevalent Ped
  Cells/liter green algae: 2.6 × 10^5 Cells/liter
[8]; 5/27/81 E, 9:40 p.m., Shallow, prevalent Ped
  Cells/liter green algae: 1.09 × 10^5 Cells/liter
[8]; 5/28/81 F, 7 a.m., prevalent Ped
  Cells/liter green algae: 1.3 × 10^5 Cells/liter
[8]; 5/28/81 G, 11 a.m., prevalent Ped
  Cells/liter green algae: 1.1 × 10^5 Cells/liter
[8]; through June, 1981
  green algae after treatment: remained unchanged
[9]; 2.5 ppm, 13 days after innoculation
  cells/ml: 5885 cells/ml
[9]; 2.5 ppm, 20 days after innoculation
  cells/ml: 10510 cells/ml
[9]; 7.5 ppm, 13 days after innoculation
  cells/ml: 5335 cells/ml
[9]; 7.5 ppm, 20 days after innoculation
  cells/ml: 10295 cells/ml
[9]; both 2.5 ppm and 7.5 ppm, after thirteen days
  reduction in numbers: 55%
[9]; both concentrations (2.5 and 7.5 ppm), after twenty days
  reduction in numbers: 27%
[10]; 6/10/81
  Cells/liter green algae: 3.0 × 10^3 Cells/liter
[10]; 6/12/81
  Cells/liter green algae: 1.4 × 10^3 Cells/liter
[10]; 6/22/81
  Cells/liter green algae: 3.5 × 10^5 Cells/liter
[11]; [12]
  Chlorophyll a: .000 absorbance at 663 nm
[11]; 8/1 post-treatment
  Chlorophyll a: .064 absorbance at 663 nm
[11]; 8/6 post-treatment
  Chlorophyll a: .000 absorbance at 663 nm
[11]; 8/19 post-treatment
  Chlorophyll a: .002 absorbance at 663 nm
[11]; 9/6 post-treatment
  Chlorophyll a: .240 absorbance at 663 nm
